Data as given in patent EP0306300B1, “Pyrrolo(1,2-a)imidazole and imidazo(1,2-a)pyridine derivatives and their use as 5-lipoxygenase pathway inhibitors” (SMITHKLINE BEECHAM CORPORATION, priority 1987, dated 1989).
Where two headings read alike, the source gives them in different places.

Tests used:
cynomolgus monkeys = assay: CNS activity / oral toxicity in cynomolgus monkeys; settings: cynomolgus monkey, in vivo
Method: Additional monkeys tolerated repeated doses of 45 mg/kg or 30 mg/kg and one animal tolerated an escalating dose schedule of 30-90-120 mg/kg.
The two monkeys administered 400 mg/kg were repeatedly administered this dose for 7 consecutive days; each animal experienced emesis within 1 to 5 hours of dosing after the 1st, 3rd and 4th doses, whereas only the female experienced emesis after the 5th, 6th and 7th doses. A complete necropsy, serum clinical chemistry, hematology and histological examination was completed on both monkeys.

[1] = tested on: arachidonic acid-induced edema in mice; assay: Arachidonic acid-induced mouse ear inflammation (ear swelling); assay type: in vivo, male Balb/c mice; settings: 1 h, 50 mg/kg s.c. or i.p., ear thickness one hour after 2 mg arachidonic acid
[2] = tested on: Eicosanoid Production in Human Whole Blood; assay: Inhibition of eicosanoid production following calcium ionophore stimulation in human whole blood; assay type: cell-based; settings: human blood stimulated with calcium ionophore
Method: The eicosanoids, which include the 5-lipoxygenase products LTB , transLTB₄, 20-hydroxyLTB₄, 5-HETE, and the 12-lipoxygenase product are extracted from the whole blood following A23187 calcium ionophore stimulation. The extracts are separated by reverse phase high pressure liquid chromatography and quantified by absorbance methods.
Venous human blood is collected into polypropylene tubes containing 1% heparin. The blood is then aliquoted into 4.5 ml volumes and preincubated at 37°C for 10 minutes in polypropylene tubes (15 ml size). Compound or carrier (50 »L dimethylsulfoxide) is added 5 minutes prior to stimulation. Calcium ionophore (0.5ml) is added, and the blood incubated for 10 minutes. Prostaglancin B₂(1 nmole) is added, and the blood extracted as described below.
The samples are centrifuged at 1000xg for 15 minutes at 5°C. The plasma is collected, and one volume of methanol is added to the plasma. This suspension is then centrifuged at 1000xg for ten minutes at 5°C. The supernatant is collected and diluted with 1.5 volumes of chilled aqueous 1% formic acid: 1% triethylamine. This mixture is loaded onto a preconditioned J.T. Baker C18 SPE cartridge (Phillipsburg, NJ) at a flow rate of 1-2 ml/minute. (The cartridge is preconditioned according to manufacture's recommendations.) The absorbed sample is washed in the following order with three (3) ml each of (i) aqueous 1% formic acid: 1% triethylamine; (ii) petroleium ether; and (iii) 20% acetonitrile: 1% triethylamine.
The eicosanoids are eluted in 3ml of 70% acetonitrile: 1% triethylamine. The solvent is removed under vacuum. The sample is resuspended in 200»L of 50% methanol buffered with ammonium acetate.
The sample (175 »l) is loaded into a WATERS (Milbord, MA) RCM NOVA PAK C18 (100x8mm) column with the starting mobile phase of 90% A (A = 10% acetonitrile buffered with 30mM ammonium acetate to pH6.8) and 10% B (B = 90% acetonitrile buffered with 30mM ammonium acetate to pH6.8). The flow rate for the separation is 2.5ml/minute. At one minute the %B is increased to 27% in a step fashion. By 12 minutes the %B has increased in a concave hyperbolic function (curve 9) to 40% and increases in a linear manner to 60% by 22 minutes. Under these developing conditions, the retention times for the eicosanoids are: 20-hydroxyLTB₄, 4.6 minutes; transLTB₄, 10 minutes; LTB₄, 10.5 minutes; 12-HETE, 10.4 minutes; 5-HETE, 21 minutes. The HPLC system consisted of WATERS 510 pumps, 840 controller, WISP injector and 990 detector.
The eicosanoids in the samples are verified by their retention times and their UV absorbance spectra. The peaks are quantified with reference to the internal standard and their absorbance response at their maximum absorbance wavelength.

[3] = In vivo metabolism (statement only)
[4] = 5-HETE, read-out: 5-LO, IC50 (uM) 5-HETE
[5] = 12-HETE, read-out: 5-LO, IC50 (uM) 12-HETE
[6] = LTB4, read-out: 5-LO, IC50 (uM) LTB4
[7] = tLTB4, read-out: 5-LO, IC50 (uM) tLTB4

**Q.** Which results are given for `CSc1ccc(-c2nc3n(c2-c2ccncc2)CCC3)cc1` [Compound 1, 2-(4-Methylthiophenyl)-3-(4-pyridyl)-6,7-dihydro-[5H]-pyrrolo[1,2-a]imidazole]?
**A.** Adverse CNS activity (cynomolgus monkeys): +; CNS toxicity / adverse CNS effects (comparative statement) (cynomolgus monkeys): less CNS toxicity than prior art compound A; inhibition at 50 mg/kg [1]: 62%; IC50 [2, 4]: 30 µM; IC50 [2, 5]: 60 µM; IC50 ([2]; 20-OH-LTR4, read-out: 5-LO, IC50 (uM) 20-OH-LTR4): 30 µM; IC50 [2, 6]: 30 µM; IC50 [2, 7]: 30 µM

**Q.** With `C[S+]([O-])c1ccc(-c2nc3n(c2-c2ccncc2)CCC3)cc1` (stereo not shown) [Compound 2, 2-(4-Methylsulfinylphenyl)-3-(4-pyridyl)-6,7-dihydro-[5H]-pyrrolo[1,2-a]imidazole] as the compound, how does the metabolism in vivo [3] read?
**A.** The metabolism in vivo was “metabolized in vivo to compound D”.

**Q.** What about the IC50 [2, 4] of the same compound?
**A.** Its IC50 is 80 µM.

**Q.** What about the IC50 [2, 5] of the same compound?
**A.** Its IC50 is 80 µM.

**Q.** And the IC50 [2, 6]?
**A.** The IC50 was 80 µM.

**Q.** And the IC50 [2, 7]?
**A.** Its IC50 is 80 µM.
